The record followed here is patent publication US5134150A, “Inhibition of the 5-lipoxygenase pathway” (priority 1989, dated 1992).

“Also recorded” adds a separate entry of the source.

Test [1] concerns Carrageenan-Induced Cellular Infiltration into the Rat Air Pouch. In words: Carrageenan-induced air pouch inflammation. In kind it is in vivo, rat (male Lewis). The settings on record: for Cell infiltration into carrageenan air pouch, result in words: rat, in vivo. From the text:
(§1) In the following Examples where mice were used, they were male Balb/c mice (20-28 g), and where rats were used, they were male Lewis rats (180-210 g). All mice and rats were obtained from Charles River Breeding Laboratories, Kingston, N.Y. Within a single experiment, mice and rats were sex and age matched.
(§2) The compounds of Formula (I) were used either as the free base or in the appropriate salt form. Levamisole was used as the hydrochloride salt. The compounds were homogenized in 0.5% tragacanth. Compounds were administered by gavage at the indicated dose in a final volume of 10 ml/kg. Nordihydroguaiaretic acid (NDGA) was solubilized in dimethylacetamide and diluted with olive oil for subcutaneous administration.
(§3) Rats were shaved on the dorsal flank, and then injected subcutaneously one day later with 20 ml of air to form a defined pouch, by the method of Sedgwick et al., J. Pathology, 141, 483-495 (1983). The air pouch was reinflated as necessary over the next 6 days. To assay anti-inflammatory activity, animals were treated orally with test compound or vehicle (10 ml/kg) one hour before injection of 2.0 ml of a 2.0% carrageenan suspension containing […] penicillin and 100 µg/ml streptomycin into the air pouch. In other experiments, 5 ml of 0.1% arachidonic acid in 0.2M bicarbonate buffer was injected two hours after drug treatment. Animals were sacrificed using CO2 three hours after instillation of irritant. The exudate was then aspirated from the pouch and neutrophil count and differential cell count were measured.

The subject of test [2] is 5-lipoxygenase and LTA4 synthetase. Put plainly: Di-HETE / LTB4 production by high speed supernatant of RBL-1 cells. The class given is biochemical. Here is the method: For in vitro experiments, compounds were dissolved at appropriate concentrations in ethanol or DMSO (dimethylsulfoxide) (final concentration≤1.0%) and then diluted to final concentrations using the buffers indicated in the text.
The activities of these enzymes in extracts of RBL-1 cells were assayed using the method of Jakschik and Lee, Nature, 287, 51-52 (1980). RBL-1 cells were obtained from the American Type Culture Collection (#CRL 1378) and were grown at 37° C. (5% CO2 in air) in spinner culture in MEM supplemented with 10% heat inactivated fetal calf serum. Harvested cells were washed with 50 mM sodium phosphate buffer, pH 7.0, containing 1 mM EDTA and 0.1% gelatin, resuspended in fresh buffer (5×10^7 cells/ml) and disrupted by nitrogen cavitation using the Parr bomb at 750 psi for 10 min. The broken cell extract was then centrifuged at 10,000× g for 20 minutes (min) and the supernatant centrifuged at 100,000 xIg for 60 min. Aliquots (0.25 mls) of the supernatant were preincubated with or without drugs for 10 min, after which 10 μl CaCl2 (50 mM) was added and the reaction was initiated with 2.5 μl of 2.5 mM arachidonic acid-1-^14 C (final concentration was 25 μM; specific activity 20,000 dpm/nmole). After incubation for 3 min at 37° C., the reaction was terminated by addition of 2 volumes (0.5 ml) ice cold acetone and the sample was allowed to deproteinize on ice for 10 min prior to centrifugation at 1,000× g for 10 min. The deproteinized supernatant was adjusted to pH 3.5 with 2N formic acid and extracted with 2 volumes of ice cold ethyl acetate. The extracted samples were dried under argon, redissolved in ethyl acetate and applied to Whatman LK5D thin layer chromatography (TLC) plates which were developed using the A-9 solvent system [organic phase of ethyl acetate: 2,2,5-trimethylpentane:acetic acid: water (110:50:20:10)] described by Hamberg and Samuelsson, J. Biol. Chem., 241, 257-263 (1966). Arachidonic acid, 5-HETE, LTB4 and PGD2 were quantified with a Berthold LB 2832 autoscanner.
The 5-lipoxygenase and LTA4 synthetase activities were further studied under the following conditions. An additional centrifugation of the RBL-1 supernatant was run at 100,000× g for 60 min, to remove the particulate cyclooxygenase activity. Sample incubation was done under conditions similar to those described above, i.e., 2 mM CaCl2 and […] arachidonic acid-1-^14 C, however, with an incubation time of 5 min at 5° C. Under these conditions, only the 5-lipoxygenase pathway metabolites were detectable. The 5-HETE and di-HETEs were formed at a linear rate, and substantial amounts of the arachidonic acid-1-^14 C substrate were utilized.

For test [3], the system named is Arachidonic Acid-Induced Inflammation of the Mouse Ear. Put plainly: Arachidonic acid-induced mouse ear inflammation. In kind it is in vivo, mouse (male Balb/c). The settings on record: for Mouse ear edema, result in words: in vivo.
Description: as §1, §2
Arachidonic acid in acetone ([…]) was applied to the inner surface of the left ear. The thickness of both ears was then measured with a dial micrometer one hour after treatment, and the data were expressed as the change in thickness (10^-3 cm) between treated and untreated ears.
Test compounds were given orally in 0.5% tragacanth at the times indicated in the text prior to the topical application of arachidonic acid.
Parenteral administration of compound was accomplished by subcutaneous injection of solution as indicated.

The subject of test [4] is Infiltration of Polymorphonuclear Leukocytes into Sites of Carrageenan-Induced Inflammation. In words: Mouse carrageenan peritonitis (PMN infiltration). As to conditions: for PMN infiltration, result in words: carrageenan peritonitis, mice. The class given is in vivo, mouse (male Balb/c).
The test system of test [5] is Arachidonic Acid-Induced Rat Paw Edema. Put plainly: Arachidonic acid-induced rat paw swelling. The class given is in vivo, rat (male Lewis).
Description: as §1
Auranofin, phenidone, indomethacin, naproxen, and ibuprofen were each used as the free base. The compounds of Formula (I) were used either as the free base or in the appropriate salt form. Levamisole was used as the hydrochloride salt. The compounds were homogenized in 0.5% tragacanth. Compounds were administered by gavage at the indicated dose in a final volume of 10 ml/kg. Nordihydroguaiaretic acid (NDGA) was solubilized in dimethylacetamide and diluted with olive oil for subcutaneous administration.
After determining pretreatment paw volumes by plethysmography by the method of Webb and Griswold, J. Pharmacol. Methods, 12, 149-153 (1984), rats were given test compound or vehicle one hour prior to the subplantar injection of 0.1 ml of 1 mg/ml arachidonic acid. Paw volumes were then remeasured and compared to pretreatment values and the increase in paw volume was expressed as mean values ± S.D.

The test system of test [6] is Arachidonic Acid-Induced Cellular Infiltration into the Rat Air Pouch. In words: Arachidonic acid-induced air pouch inflammation. As to conditions: for Cell infiltration into arachidonic acid air pouch, result in words: rat, in vivo. The class given is in vivo, rat (male Lewis).
Description: as §1, §2, §3

The mark [7] stands for this setting: 5 mg/kg, 2 hours post arachidonic acid.

As for `COc1ccc2c(c1)c(CC(=O)O)c(C)n2C(=O)c1ccc(Cl)cc1` [Indomethacin], in test [1] (5 mg/kg), the “Cellular Infiltrate MN” value came out at 4.0 ± 0.8 Total × 10^-6, the “Cellular Infiltrate PMN” value is given as 2.8 ± 0.7 Total × 10^-6 and the “Exudate Volume” value amounted to 2.0 ± 0.5 mL. Also, in test [1], the “Cell infiltration into carrageenan air pouch, result in words” value was “reduction in the PMN count and the PMN:mononuclear cell ratio”. The “Inhibition of eicosanoid formation / LTB4, result in words” value in test [2] (indomethacin: concentrations up to 10^-4 M) was “inactive”. In test [3] (10 mg/kg, p.o.), the “% Change (ear thickness)” value is -5% and the “Increase in Ear Thickness at 1 Hour” value is recorded as 24.4 ± 0.8 × 10-3 cm. In addition, in test [3], the “Mouse ear edema, result in words” value was “did not exhibit detectable anti-inflammatory activity”. Besides, in test [4] (10 mg/kg, p.o., Table 3), the “% Change (PMN)” value is recorded as -12% and the “PMN (Mean ± S.D.)” value is 8.20 ± 2.65 × 10^-5 /ml. Besides, the “PMN infiltration, result in words” value in test [4] is “did not impair inflammatory cell infiltration”. Further, in test [5] (setting [7]), the “% Inhibition (paw volume)” value was 0% and the “Change in Paw Volume” value was determined as 0.29 ± 0.06 mL. In test [6] (5 mg/kg), the “Cellular Infiltrate MN” value was 7.0 ± 6.4 Total × 10^-6, the “Cellular Infiltrate PMN” value amounted to 5.0 ± 3.8 Total × 10^-6 and the “Exudate Volume” value was 2.5 ± 0.8 mL. Also, the “Cell infiltration into arachidonic acid air pouch, result in words” value in test [6] was “did not reduce inflammation or cell infiltration; also recorded: no significant effect on cell infiltration”.
Turning to `Fc1ccc(-c2nc3n(c2-c2ccncc2)CCS3)cc1` [Compound 1], the “Cellular Infiltrate MN” value is listed as 5.5 ± 3.8 Total × 10^-6 in test [1] (100 mg/kg) and 1.5 ± 1.1 Total × 10^-6 in test [6] (100 mg/kg). Also, the figures for the “Cellular Infiltrate PMN” value in test [1] (100 mg/kg) and in test [6] (100 mg/kg) were 2.6 ± 1.3 Total × 10^-6 and 1.2 ± 0.7 Total × 10^-6, respectively. Besides, the “Exudate Volume” value in test [1] (100 mg/kg) was determined as 1.0 ± 0.9 mL; in test [6] (100 mg/kg) it was 2.6 ± 0.8 mL. In addition, the “Cell infiltration into carrageenan air pouch, result in words” value in test [1] is recorded as “significant inhibition of polymorphonuclear leukocyte infiltration”. Besides, the Di-HETE in test [2] (1 μM) was 1.56 ± 0.06 nM/ml; in test [2] (3.3 μM) it was 1.34 ± 0.12 nM/ml; in test [2] (10 μM), 0.88 ± 0.21 nM/ml; in test [2] (33 μM), 0.40 ± 0.08 nM/ml; in test [2] (100 μM) it was 0.03 ± 0.04 nM/ml. In addition, in test [2] (soluble extract of RBL-1 cells containing only lipoxygenase activity, read-out: IC50, eicosanoid formation (LTB4 production)), the IC50 – broadly, the concentration that inhibits the measured activity by half – came to 7.5 µM. Further, the “Increase in Ear Thickness at 1 Hour” value in test [3] (50 mg/kg, p.o.) was 10.0 ± 1.5 × 10-3 cm. Moreover, the “Mouse ear edema, result in words” value in test [3] is given as “marked inhibition of the edematous response”. The “PMN infiltration, result in words” value in test [4] was “reduced dramatically”. In addition, the “Change in Paw Volume” value in test [5] (100 mg/kg, 2 hours post arachidonic acid) was found to be 0.06 ± 0.05 mL. Besides, the “Rat paw inflammatory response, result in words” value in test [5] (rat, in vivo) is reported as “inhibited significantly”. Also, the “Cell infiltration into arachidonic acid air pouch, result in words” value in test [6] is “significantly reduced PMN and mononuclear cell infiltration”.
